# Tested on: Calu-6;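 also: growth of human Calu-6 cells, read out by a cell viability assay, IC50 marking inhibition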
# Test: cells
# Format: functional, cell-based, Homo sapiens
# Settings: Homo sapiens, Calu-6
# Description: SANGER: Inhibition of human Calu-6 cell growth in a cell viability assay.
row,Compound,IC50
1,CC1(C)CNc2cc(NC(=O)c3cccnc3NCc3ccncc3)ccc21 [MOTESANIB],> 2000 nM

# Tested on: NCI-H2126;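 also: growth inhibition of the cancer cell line, determined with a cell viability readout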
# Test: cells
# Format: functional, cell-based, Homo sapiens
# Settings: Homo sapiens, NCI-H2126
# Description: SANGER: Inhibition of human NCI-H2126 cell growth in a cell viability assay.
row,Compound,IC50
1,CC1(C)CNc2cc(NC(=O)c3cccnc3NCc3ccncc3)ccc21 [MOTESANIB],> 2000 nM

# Tested on: AM-38;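 also: growth inhibition of AM-38 cells of human origin, read out by a cell viability assay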
# Test: cells
# Format: functional, cell-based, Homo sapiens
# Settings: Homo sapiens, AM-38
# Description: SANGER: Inhibition of human AM-38 cell growth in a cell viability assay.
row,Compound,IC50
1,CC1(C)CNc2cc(NC(=O)c3cccnc3NCc3ccncc3)ccc21 [MOTESANIB],> 2000 nM

# Tested on: EW-1;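 also: growth inhibition of the human EW-1 cell line, read out by a cell viability assay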
# Test: cells
# Format: functional, cell-based, Homo sapiens
# Settings: Homo sapiens, EW-1
# Description: SANGER: Inhibition of human EW-1 cell growth in a cell viability assay.
row,Compound,IC50
1,CC1(C)CNc2cc(NC(=O)c3cccnc3NCc3ccncc3)ccc21 [MOTESANIB],> 2000 nM

# Tested on: NCI-H226;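 also: cell viability read-out used to gauge growth inhibition of the cells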
# Test: cells
# Format: functional, cell-based, Homo sapiens
# Settings: Homo sapiens, NCI-H226
# Description: SANGER: Inhibition of human NCI-H226 cell growth in a cell viability assay.
row,Compound,IC50
1,CC1(C)CNc2cc(NC(=O)c3cccnc3NCc3ccncc3)ccc21 [MOTESANIB],> 2000 nM

# Tested on: U-87 MG;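 also: growth inhibition of the cells measured with a viability assay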
# Test: cells
# Format: functional, cell-based, Homo sapiens, U-87MG ATCC
# Settings: Homo sapiens, U-87 MG
# Description: SANGER: Inhibition of human U-87-MG cell growth in a cell viability assay.
row,Compound,IC50
1,CC1(C)CNc2cc(NC(=O)c3cccnc3NCc3ccncc3)ccc21 [MOTESANIB],> 2000 nM

# Tested on: A498;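 also: growth inhibition of human A498 cells, read out with a cell viability assay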
# Test: cells
# Format: functional, cell-based, Homo sapiens
# Settings: Homo sapiens, A498
# Description: SANGER: Inhibition of human A498 cell growth in a cell viability assay.
row,Compound,IC50
1,CC1(C)CNc2cc(NC(=O)c3cccnc3NCc3ccncc3)ccc21 [MOTESANIB],> 2000 nM

# Tested on: NB5;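 also: growth inhibition of NB5 cells, read out as cell viability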
# Test: cells
# Format: functional, cell-based, Homo sapiens
# Settings: Homo sapiens, NB5
# Description: SANGER: Inhibition of human NB5 cell growth in a cell viability assay.
row,Compound,IC50
1,CC1(C)CNc2cc(NC(=O)c3cccnc3NCc3ccncc3)ccc21 [MOTESANIB],> 2000 nM

# Tested on: SK-MEL-2;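 also: growth inhibition of human SK-MEL-2 cells measured with a cell viability assay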
# Test: cells
# Format: functional, cell-based, Homo sapiens
# Settings: Homo sapiens, SK-MEL-2
# Description: SANGER: Inhibition of human SK-MEL-2 cell growth in a cell viability assay.
row,Compound,IC50
1,CC1(C)CNc2cc(NC(=O)c3cccnc3NCc3ccncc3)ccc21 [MOTESANIB],> 2000 nM

# Tested on: TE-9;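 also: cell growth inhibition, measured with a cell viability readout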
# Test: cells
# Format: functional, cell-based, Homo sapiens
# Settings: Homo sapiens, TE-9
# Description: SANGER: Inhibition of human TE-9 cell growth in a cell viability assay.
row,Compound,IC50
1,CC1(C)CNc2cc(NC(=O)c3cccnc3NCc3ccncc3)ccc21 [MOTESANIB],> 2000 nM

# Tested on: LNCaP-Clone-FGC
# Test: cells
# Format: functional, cell-based, Homo sapiens
# Settings: Homo sapiens, LNCaP-Clone-FGC
# Description: SANGER: Inhibition of human LNCaP-Clone-FGC cell growth in a cell viability assay.
row,Compound,IC50
1,CC1(C)CNc2cc(NC(=O)c3cccnc3NCc3ccncc3)ccc21 [MOTESANIB],> 2000 nM

# Tested on: ACN;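 also: growth inhibition of the human ACN cell line, read out via cell viability testing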
# Test: cells
# Format: functional, cell-based, Homo sapiens
# Settings: Homo sapiens, ACN
# Description: SANGER: Inhibition of human ACN cell growth in a cell viability assay.
row,Compound,IC50
1,CC1(C)CNc2cc(NC(=O)c3cccnc3NCc3ccncc3)ccc21 [MOTESANIB],> 2000 nM

# Tested on: NCI-H1092;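 also: cell growth inhibition measured with a cell viability assay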
# Test: cells
# Format: functional, cell-based, Homo sapiens
# Settings: Homo sapiens, NCI-H1092
# Description: SANGER: Inhibition of human NCI-H1092 cell growth in a cell viability assay.
row,Compound,IC50
1,CC1(C)CNc2cc(NC(=O)c3cccnc3NCc3ccncc3)ccc21 [MOTESANIB],> 2000 nM

# Tested on: UACC-257
# Test: cells
# Format: functional, cell-based, Homo sapiens
# Settings: Homo sapiens, UACC-257
# Description: SANGER: Inhibition of human UACC-257 cell growth in a cell viability assay.
row,Compound,IC50
1,CC1(C)CNc2cc(NC(=O)c3cccnc3NCc3ccncc3)ccc21 [MOTESANIB],> 2000 nM

# Tested on: C8166;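 also: growth inhibition of human C8166 cells measured by a cell viability assay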
# Test: cells
# Format: functional, cell-based, Homo sapiens
# Settings: Homo sapiens, C8166
# Description: SANGER: Inhibition of human C8166 cell growth in a cell viability assay.
row,Compound,IC50
1,CC1(C)CNc2cc(NC(=O)c3cccnc3NCc3ccncc3)ccc21 [MOTESANIB],> 2000 nM

# Tested on: D-263MG
# Test: cells
# Format: functional, cell-based, Homo sapiens
# Settings: Homo sapiens, D-263MG
# Description: SANGER: Inhibition of human D-263MG cell growth in a cell viability assay.
row,Compound,IC50
1,CC1(C)CNc2cc(NC(=O)c3cccnc3NCc3ccncc3)ccc21 [MOTESANIB],> 2000 nM

# Tested on: LC-2-ad;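 also: growth inhibition of human LC-2-ad cells, read out with a cell viability assay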
# Test: cells
# Format: functional, cell-based, Homo sapiens
# Settings: Homo sapiens, LC-2-ad
# Description: SANGER: Inhibition of human LC-2-ad cell growth in a cell viability assay.
row,Compound,IC50
1,CC1(C)CNc2cc(NC(=O)c3cccnc3NCc3ccncc3)ccc21 [MOTESANIB],> 2000 nM

# Tested on: SK-PN-DW;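 also: growth inhibition measured with a viability assay on these cells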
# Test: cells
# Format: functional, cell-based, Homo sapiens
# Settings: Homo sapiens, SK-PN-DW
# Description: SANGER: Inhibition of human SK-PN-DW cell growth in a cell viability assay.
row,Compound,IC50
1,CC1(C)CNc2cc(NC(=O)c3cccnc3NCc3ccncc3)ccc21 [MOTESANIB],> 2000 nM

# Tested on: DB
# Test: cells
# Format: functional, cell-based, Homo sapiens
# Settings: Homo sapiens, DB
# Description: SANGER: Inhibition of human DB cell growth in a cell viability assay.
row,Compound,IC50
1,CC1(C)CNc2cc(NC(=O)c3cccnc3NCc3ccncc3)ccc21 [MOTESANIB],> 2000 nM

# Tested on: KM12;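 also: KM12 cell growth inhibition, read out with a cell viability assay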
# Test: cells
# Format: functional, cell-based, Homo sapiens
# Settings: Homo sapiens, KM12
# Description: SANGER: Inhibition of human KM12 cell growth in a cell viability assay.
row,Compound,IC50
1,CC1(C)CNc2cc(NC(=O)c3cccnc3NCc3ccncc3)ccc21 [MOTESANIB],> 2000 nM

# Tested on: RS4-11;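 also: growth inhibition of RS4-11 cells, read out by a cell viability assay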
# Test: cells
# Format: functional, cell-based, Homo sapiens
# Settings: Homo sapiens, RS4-11
# Description: SANGER: Inhibition of human RS4-11 cell growth in a cell viability assay.
row,Compound,IC50
1,CC1(C)CNc2cc(NC(=O)c3cccnc3NCc3ccncc3)ccc21 [MOTESANIB],> 2000 nM

# Tested on: NH-12;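 also: growth inhibition of NH-12 cells, read out with a cell viability assay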
# Test: cells
# Format: functional, cell-based, Homo sapiens
# Settings: Homo sapiens, NH-12
# Description: SANGER: Inhibition of human NH-12 cell growth in a cell viability assay.
row,Compound,IC50
1,CC1(C)CNc2cc(NC(=O)c3cccnc3NCc3ccncc3)ccc21 [MOTESANIB],> 2000 nM

# Tested on: HT-144
# Test: cells
# Format: functional, cell-based, Homo sapiens
# Settings: Homo sapiens, HT-144
# Description: SANGER: Inhibition of human HT-144 cell growth in a cell viability assay.
row,Compound,IC50
1,CC1(C)CNc2cc(NC(=O)c3cccnc3NCc3ccncc3)ccc21 [MOTESANIB],> 2000 nM

# Tested on: HT
# Test: cells
# Format: functional, cell-based, Homo sapiens
# Settings: Homo sapiens, HT
# Description: SANGER: Inhibition of human HT cell growth in a cell viability assay.
row,Compound,IC50
1,CC1(C)CNc2cc(NC(=O)c3cccnc3NCc3ccncc3)ccc21 [MOTESANIB],> 2000 nM

# Tested on: RXF 393;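 also: growth inhibition of human RXF 393 cells, read out with a cell viability assay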
# Test: cells
# Format: functional, cell-based, Homo sapiens
# Settings: Homo sapiens, RXF 393
# Description: SANGER: Inhibition of human RXF393 cell growth in a cell viability assay.
row,Compound,IC50
1,CC1(C)CNc2cc(NC(=O)c3cccnc3NCc3ccncc3)ccc21 [MOTESANIB],> 2000 nM

# Tested on: LB996-RCC
# Test: cells
# Format: functional, cell-based, Homo sapiens
# Settings: Homo sapiens, LB996-RCC
# Description: SANGER: Inhibition of human LB996-RCC cell growth in a cell viability assay.
row,Compound,IC50
1,CC1(C)CNc2cc(NC(=O)c3cccnc3NCc3ccncc3)ccc21 [MOTESANIB],> 2000 nM

# Tested on: SJSA-1;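 also: growth inhibition of human SJSA-1 cells, read out through a cell viability measurement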
# Test: cells
# Format: functional, cell-based, Homo sapiens
# Settings: Homo sapiens, SJSA-1
# Description: SANGER: Inhibition of human SJSA-1 cell growth in a cell viability assay.
row,Compound,IC50
1,CC1(C)CNc2cc(NC(=O)c3cccnc3NCc3ccncc3)ccc21 [MOTESANIB],> 2000 nM

# Tested on: MZ1-PC;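 also: cell viability assay measuring growth inhibition of human MZ1-PC cells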
# Test: cells
# Format: functional, cell-based, Homo sapiens
# Settings: Homo sapiens, MZ1-PC
# Description: SANGER: Inhibition of human MZ1-PC cell growth in a cell viability assay.
row,Compound,IC50
1,CC1(C)CNc2cc(NC(=O)c3cccnc3NCc3ccncc3)ccc21 [MOTESANIB],> 2000 nM

# Tested on: HEL;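 also: growth inhibition of HEL cells, read out with a cell viability assay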
# Test: cells
# Format: functional, cell-based, Homo sapiens
# Settings: Homo sapiens, HEL
# Description: SANGER: Inhibition of human HEL cell growth in a cell viability assay.
row,Compound,IC50
1,CC1(C)CNc2cc(NC(=O)c3cccnc3NCc3ccncc3)ccc21 [MOTESANIB],> 2000 nM

# Tested on: NCI-H446;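 also: growth inhibition of NCI-H446 cells determined by a cell viability assay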
# Test: cells
# Format: functional, cell-based, Homo sapiens
# Settings: Homo sapiens, NCI-H446
# Description: SANGER: Inhibition of human NCI-H446 cell growth in a cell viability assay.
row,Compound,IC50
1,CC1(C)CNc2cc(NC(=O)c3cccnc3NCc3ccncc3)ccc21 [MOTESANIB],> 2000 nM

# Tested on: D-247MG
# Test: cells
# Format: functional, cell-based, Homo sapiens
# Settings: Homo sapiens, D-247MG
# Description: SANGER: Inhibition of human D-247MG cell growth in a cell viability assay.
row,Compound,IC50
1,CC1(C)CNc2cc(NC(=O)c3cccnc3NCc3ccncc3)ccc21 [MOTESANIB],> 2000 nM

# Tested on: HCC2218;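 also: cell viability assay read-out, with IC50 given as the concentration that inhibits growth of the cell line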
# Test: cells
# Format: functional, cell-based, Homo sapiens
# Settings: Homo sapiens, HCC2218
# Description: SANGER: Inhibition of human HCC2218 cell growth in a cell viability assay.
row,Compound,IC50
1,CC1(C)CNc2cc(NC(=O)c3cccnc3NCc3ccncc3)ccc21 [MOTESANIB],> 2000 nM

# Tested on: SCH;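 also: growth inhibition of human SCH cells, read out in a cell viability assay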
# Test: cells
# Format: functional, cell-based, Homo sapiens
# Settings: Homo sapiens, SCH
# Description: SANGER: Inhibition of human SCH cell growth in a cell viability assay.
row,Compound,IC50
1,CC1(C)CNc2cc(NC(=O)c3cccnc3NCc3ccncc3)ccc21 [MOTESANIB],> 2000 nM

# Tested on: TE-10;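 also: growth inhibition of TE-10 cells, measured by a cell viability assay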
# Test: cells
# Format: functional, cell-based, Homo sapiens
# Settings: Homo sapiens, TE-10
# Description: SANGER: Inhibition of human TE-10 cell growth in a cell viability assay.
row,Compound,IC50
1,CC1(C)CNc2cc(NC(=O)c3cccnc3NCc3ccncc3)ccc21 [MOTESANIB],> 2000 nM

# Tested on: JAR;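 also: growth inhibition of human JAR cells determined with a cell viability assay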
# Test: cells
# Format: functional, cell-based, Homo sapiens
# Settings: Homo sapiens, JAR
# Description: SANGER: Inhibition of human JAR cell growth in a cell viability assay.
row,Compound,IC50
1,CC1(C)CNc2cc(NC(=O)c3cccnc3NCc3ccncc3)ccc21 [MOTESANIB],> 2000 nM

# Tested on: SNU-5;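 also: cell viability readout used to measure growth inhibition in human NCI-SNU-5 cells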
# Test: cells
# Format: functional, cell-based, Homo sapiens
# Settings: Homo sapiens, SNU-5
# Description: SANGER: Inhibition of human NCI-SNU-5 cell growth in a cell viability assay.
row,Compound,IC50
1,CC1(C)CNc2cc(NC(=O)c3cccnc3NCc3ccncc3)ccc21 [MOTESANIB],> 2000 nM

# Tested on: Ramos-2G6-4C10;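 also: growth inhibition of the cell line, measured by a cell viability read-out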
# Test: cells
# Format: functional, cell-based, Homo sapiens
# Settings: Homo sapiens, Ramos-2G6-4C10
# Description: SANGER: Inhibition of human Ramos-2G6-4C10 cell growth in a cell viability assay.
row,Compound,IC50
1,CC1(C)CNc2cc(NC(=O)c3cccnc3NCc3ccncc3)ccc21 [MOTESANIB],> 2000 nM

# Tested on: NB10;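 also: growth inhibition of NB10 cells, read out by a cell viability assay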
# Test: cells
# Format: functional, cell-based, Homo sapiens
# Settings: Homo sapiens, NB10
# Description: SANGER: Inhibition of human NB10 cell growth in a cell viability assay.
row,Compound,IC50
1,CC1(C)CNc2cc(NC(=O)c3cccnc3NCc3ccncc3)ccc21 [MOTESANIB],> 2000 nM

# Tested on: MZ7-mel;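 also: growth inhibition of human MZ7-mel cells, measured by a cell viability assay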
# Test: cells
# Format: functional, cell-based, Homo sapiens
# Settings: Homo sapiens, MZ7-mel
# Description: SANGER: Inhibition of human MZ7-mel cell growth in a cell viability assay.
row,Compound,IC50
1,CC1(C)CNc2cc(NC(=O)c3cccnc3NCc3ccncc3)ccc21 [MOTESANIB],> 2000 nM

# Tested on: SW684;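 also: growth inhibition of human SW684 cells, measured by a cell viability assay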
# Test: cells
# Format: functional, cell-based, Homo sapiens
# Settings: Homo sapiens, SW684
# Description: SANGER: Inhibition of human SW684 cell growth in a cell viability assay.
row,Compound,IC50
1,CC1(C)CNc2cc(NC(=O)c3cccnc3NCc3ccncc3)ccc21 [MOTESANIB],> 2000 nM

# Tested on: TE-6;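 also: growth inhibition of TE-6 cells, read out with a cell viability assay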
# Test: cells
# Format: functional, cell-based, Homo sapiens
# Settings: Homo sapiens, TE-6
# Description: SANGER: Inhibition of human TE-6 cell growth in a cell viability assay.
row,Compound,IC50
1,CC1(C)CNc2cc(NC(=O)c3cccnc3NCc3ccncc3)ccc21 [MOTESANIB],> 2000 nM

# Tested on: Becker;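 also: growth inhibition of Becker cells, read out with a cell viability assay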
# Test: cells
# Format: functional, cell-based, Homo sapiens
# Settings: Homo sapiens, Becker
# Description: SANGER: Inhibition of human Becker cell growth in a cell viability assay.
row,Compound,IC50
1,CC1(C)CNc2cc(NC(=O)c3cccnc3NCc3ccncc3)ccc21 [MOTESANIB],> 2000 nM

# Tested on: BT-474
# Test: cells
# Format: functional, cell-based, Homo sapiens
# Settings: Homo sapiens, BT-474
# Description: SANGER: Inhibition of human BT-474 cell growth in a cell viability assay.
row,Compound,IC50
1,CC1(C)CNc2cc(NC(=O)c3cccnc3NCc3ccncc3)ccc21 [MOTESANIB],> 2000 nM

# Tested on: DU-4475
# Test: cells
# Format: functional, cell-based, Homo sapiens
# Settings: Homo sapiens, DU-4475
# Description: SANGER: Inhibition of human DU-4475 cell growth in a cell viability assay.
row,Compound,IC50
1,CC1(C)CNc2cc(NC(=O)c3cccnc3NCc3ccncc3)ccc21 [MOTESANIB],> 2000 nM

# Tested on: NCI-H69;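 also: growth inhibition of the cell line, read out with a cell viability assay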
# Test: cells
# Format: functional, cell-based, Homo sapiens
# Settings: Homo sapiens, NCI-H69
# Description: SANGER: Inhibition of human NCI-H69 cell growth in a cell viability assay.
row,Compound,IC50
1,CC1(C)CNc2cc(NC(=O)c3cccnc3NCc3ccncc3)ccc21 [MOTESANIB],> 2000 nM

# Tested on: QIMR-WIL;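 also: growth inhibition of QIMR-WIL cells, read out with a cell viability assay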
# Test: cells
# Format: functional, cell-based, Homo sapiens
# Settings: Homo sapiens, QIMR-WIL
# Description: SANGER: Inhibition of human QIMR-WIL cell growth in a cell viability assay.
row,Compound,IC50
1,CC1(C)CNc2cc(NC(=O)c3cccnc3NCc3ccncc3)ccc21 [MOTESANIB],> 2000 nM
